Measured values taken from patent US6489098B1, “Means and methods for monitoring nucleoside reverse transcriptase inhibitor antiretroviral therapy and guiding therapeutic decisions in the treatment of HIV/AIDS” (ViroLogic, Inc., priority 1998, dated 2002).
“Also recorded” adds a separate entry of the source.

Columns and labels:
[1] = tested on: HIV-1 RT mutant resistance test vector A62V+V75I; assay: Phenotypic susceptibility assay, site directed RTV A62V+V75I; assay type: cell-based; settings: RTV with A62V+V75I
Experimental: (§1) Resistance tests were carried out with resistance test vectors using two host cell types. Resistance test vector viral particles were produced by a first host cell (the resistance test vector host cell) that was prepared by transfecting a packaging host cell with the resistance test vector and the packaging expression vector. The resistance test vector viral particles were then used to infect a second host cell (the target host cell) in which the expression of the indicator gene is measured.
(§2) The resistance test vectors containing a functional luciferase gene cassette were constructed and host cells were transfected with the resistance test vector DNA. […] The IC50 values were determined by plotting percent drug inhibition vs. log 10 drug concentration.
(§3) Host cells were seeded in 10-cm-diameter dishes and were transfected several days after plating with resistance test vector plasmid DNA and the envelope expression vector. […] HIV capsid protein (p24) levels in the harvested cell culture media were determined by an EIA method as described by the manufacturer (SIAC; Frederick, Md.). […] The inhibitory effect of the drug was determined using the following equation: […]

[2] = tested on: HIV-1 RT mutant resistance test vector T69SSA and V75I; assay: Phenotypic susceptibility assay, site directed RTV T69SSA+V75I; assay type: cell-based; settings: V75I added onto the T69SSA background
Experimental: as §1, §2, §3

[3] = tested on: patient RTV-757, RTV-844, RTV-937, RTV-964 and RTV-966 (4 or more AZT resistance mutations); assay: Phenotypic susceptibility assay, patient isolates with AZT resistance-associated mutations; assay type: cell-based, HIV-1
Experimental: In these experiments patient-derived segment(s) corresponding to the HIV protease and reverse transcriptase coding regions were either patient-derived segments amplified by the reverse transcription-polymerase chain reaction method (RT-PCR) using viral RNA isolated from viral particles present in the serum of HIV-infected individuals or were mutants of wild type HIV-1 made by site directed mutagenesis of a parental clone of resistance test vector DNA. Isolation of viral RNA was performed using standard procedures (e.g. RNAgents Total RNA Isolation System, Promega, Madison Wis. or RNAzol, Tel-Test, Friendswood, Tex.). The RT-PCR protocol was divided into two steps. A retroviral reverse transcriptase [e.g. Moloney MuLV reverse transcriptase (Roche Molecular Systems, Inc., Branchburg, N.J.), or avian myeloblastosis virus (AMV) reverse transcriptase, (Boehringer Mannheim, Indianapolis, Ind.)] was used to copy viral RNA into cDNA. […]
Resistance tests were carried out with resistance test vectors using two host cell types. […] The resistance test vector viral particles were then used to infect a second host cell (the target host cell) in which the expression of the indicator gene is measured. […]

[4] = tested on: HIV with multi-nucleoside resistance complex (A62V, V75I, F77L, Y116F and Q115M); settings: cited from earlier work

SMILES | effect on susceptibility (words) [1] | effect on susceptibility (words) [2] | fold reduced susceptibility ([3]; four patient viruses with 4 or more AZT resistance mutations (FIG. 6)) | susceptibility compared to wild-type control RTV ([3]; patient RTV pools with multiple AZT-resistance mutations) | cross-resistance of isolates with substitutions at codons 62, 75, 77, 116 and 115 ([4]; patients on prolonged ZDV plus ddI or ddC) | fold reduction in susceptibility ([4]; A62V, V75I, F77L, Y116F and Q115M) [fold]
Cc1cn([C@H]2C=C[C@@H](CO)O2)c(=O)[nH]c1=O [d4T, stavudine] | no differences in their susceptibility to d4T; also recorded: had no effect on d4T; also recorded: had no affect on d4T susceptibility | decreased susceptibility to d4T | 3-6 fold | decrease in susceptibility to d4T; also recorded: significant decreases in susceptibility to d4T | cross-resistance | 
Cc1cn([C@H]2C[C@H](N=[N+]=[N-])[C@@H](CO)O2)c(=O)[nH]c1=O [AZT, zidovudine] | slight increases in susceptibility to AZT; also recorded: did not alter the reduced level of AZT susceptibility caused by the V75I mutation | increased susceptibility to AZT |  |  |  | 
Nc1nc(NC2CC2)c2ncn([C@H]3C=C[C@@H](CO)C3)c2n1 [ABC, abacavir] |  |  |  |  |  | 17
